From patent US20150284375A1 (AJINOMOTO CO., INC., priority 2012, published 2015)

Biological target: T1, human TRPA1 (Homo sapiens, UniProt O75762)
T1 construct: expressed in transfected cells; host or cells: Human embryonic kidney-derived 293T cells, transiently transfected with the pcDNA3.1/zeo(+) human TRPA1 plasmid
Test: Measurement of TRPA1 antagonist activity (intracellular calcium increase, FLIPR, allylisothiocyanate stimulation)
Assay type: cell-based
Details: 293T cells transfected with human TRPA1; allylisothiocyanate 20 μM; concentration for 50% inhibitory rate; read-out: antagonism hTRPA1
Description: Measurement of TRPA1 Antagonist Activity
Human TRPA1 Expression Plasmid
As cDNA encoding human TRPA1 (GenBank accession No. […]), a commercially available product was purchased (manufactured by Kazusa DNA Research Institute, clone No.: pFN21AB7348, item No.: FHC07217). Using this as a template, full-length human TRPA1 gene was amplified using the primer sequences shown below, by reaction using DNA polymerase (manufactured by Stratagene, trade name: PfuUltra High-Fidelity DNA Polymerase).
A recognition site (underlined) of restriction enzyme HindIII was added to the 5′ side, and XbaI site (underlined) was added to the 3′ side, and GTT of the template sequence was changed to termination codon TAG (bold). The obtained double stranded DNA was enzyme-digested with HindIII and XbaI, and introduced into a multicloning site of expression plasmid pcDNA3.1/zeo(+) (manufactured by Invitrogen) to give a human TRPA1 expression plasmid.
Human embryonic kidney-derived 293T cells were cultured in Dulbecco's Modified Eagle Medium containing 10% fetal bovine serum, 10 unit penicillin, and 10 μg streptomycin, plated on a petri dish having a diameter of 10 cm at 3×10^6 cells, and cultured for 24 hr. A medium containing a reduced amount of serum (manufactured by Invitrogen, trade name: OPTI-MEM, 600 μL), a gene insertion reagent (manufactured by Mirus Bio, trade name: Mirus TransIT-293, 18 μL), and human TRPA1 expression plasmid (6 μg) were mixed, the total amount of the mixture was added to the cells on the petri dish to allow for gene transfer. The cells were recovered about 8 hr later, plated on a poly-D-lysine coated 384 well black/clear bottom plate at 7,500-12,000 cells/well, and cultured overnight.
Measurement of Intracellular Calcium Increase
The 384 well plate was recovered, and the medium was removed. A calcium-bonded fluorescent indicator (manufactured by Molecular Device, trade name: Calcium4 Assay Kit, 40 μL) dissolved in assay buffer (1×HBSS, 20 mM HEPES, pH 7.2) was added, and the cells were stained in a 37° C. incubator for 1 hr. The cells were taken out at room temperature and left standing for 15 min or more. A test substance (10 μL) was added by a 384 well type dispenser, and the mixture was incubated at room temperature for 10 min. Then, allylisothiocyanate (12.5 μL) at a final concentration of 20 μM was added by a fluorescence imaging plate reader (manufactured by Molecular Device, FLIPR), and changes in the relative fluorescence intensity were measured for 5 min.
Test Substance Preparation
The test substance was dissolved in dimethyl sulfoxide and serially diluted with an assay buffer containing 0.1% bovine serum albumin (1×HBSS, 20 mM HEPES, pH 7.2) to a 5-fold concentration of the evaluation concentration. Allylisothiocyanate, which is a known TRPA1 activator, was dissolved in dimethyl sulfoxide to 100 mM, and further diluted 5-fold (100 μM) of the final concentration, like the test substance.
Calculation of Antagonist Activity
Under the test substance-free conditions, the maximum variation range of the fluorescence intensity before and after allylisothiocyanate stimulation was defined to be 100% activity rate, and the variation range before and after buffer stimulation was defined as 0% activity rate. The activity rate on addition of the test substance was determined, and the numerical value obtained by subtracting the activity rate from 100 was defined to be an inhibitory rate. 1050, which is the concentration of the test substance necessary for reaching the 50% inhibitory rate, was calculated from the sigmoid approximate curve by a spreadsheet software Excel-Fit.

T1 sequence (O75762 whole entry): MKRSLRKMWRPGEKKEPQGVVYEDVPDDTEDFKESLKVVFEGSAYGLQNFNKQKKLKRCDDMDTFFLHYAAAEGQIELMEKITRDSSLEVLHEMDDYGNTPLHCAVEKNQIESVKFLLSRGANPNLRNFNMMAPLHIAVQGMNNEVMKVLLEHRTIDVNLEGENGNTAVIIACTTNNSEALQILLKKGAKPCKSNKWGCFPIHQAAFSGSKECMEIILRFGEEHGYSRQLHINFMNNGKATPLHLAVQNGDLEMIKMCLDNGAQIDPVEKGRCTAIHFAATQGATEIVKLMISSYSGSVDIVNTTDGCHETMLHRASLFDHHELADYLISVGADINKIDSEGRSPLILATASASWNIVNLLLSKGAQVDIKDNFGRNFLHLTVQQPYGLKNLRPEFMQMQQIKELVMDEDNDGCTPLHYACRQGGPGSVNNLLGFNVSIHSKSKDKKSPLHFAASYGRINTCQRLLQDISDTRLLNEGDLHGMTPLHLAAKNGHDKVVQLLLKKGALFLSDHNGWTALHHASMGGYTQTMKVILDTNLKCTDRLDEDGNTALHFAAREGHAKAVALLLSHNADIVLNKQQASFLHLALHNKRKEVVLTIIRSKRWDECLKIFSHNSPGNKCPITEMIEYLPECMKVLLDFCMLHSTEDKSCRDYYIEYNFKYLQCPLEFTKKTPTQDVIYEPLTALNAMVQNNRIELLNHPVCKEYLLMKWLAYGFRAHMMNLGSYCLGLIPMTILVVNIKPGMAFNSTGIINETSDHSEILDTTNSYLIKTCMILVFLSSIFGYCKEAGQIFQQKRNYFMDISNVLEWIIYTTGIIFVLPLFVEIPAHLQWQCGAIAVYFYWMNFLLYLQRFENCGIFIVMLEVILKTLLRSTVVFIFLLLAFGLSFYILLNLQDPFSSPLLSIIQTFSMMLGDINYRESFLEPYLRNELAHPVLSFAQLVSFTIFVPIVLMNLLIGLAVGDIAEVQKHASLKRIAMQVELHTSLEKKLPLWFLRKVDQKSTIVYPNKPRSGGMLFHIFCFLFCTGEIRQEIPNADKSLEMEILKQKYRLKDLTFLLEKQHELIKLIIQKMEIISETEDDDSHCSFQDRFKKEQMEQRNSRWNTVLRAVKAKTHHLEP

SMILES	IC50
COC(=O)c1ccc(OCc2ccc(CNC(=O)[C@@H]3CCCN3S(=O)(=O)c3ccc(Cl)s3)cc2)cc1 [Example 48, methyl 4-((4-({[(2S)-1-(5-chlorothiophene-2-sulfonyl)pyrrolidine-2-carbonyl]amino}methyl)phenyl)methoxy)benzoate]	630 nM
N#Cc1ccc(OCc2ccc(CNC(=O)[C@@H]3CCCN3S(=O)(=O)c3ccc(Cl)s3)cc2)cc1 [Example 49, (2S)-1-(5-chlorothiophene-2-sulfonyl)-N-({4-[(4-cyano-phenoxy)methyl]phenyl}methyl)pyrrolidine-2-carboxamide]	2100 nM
O=C(NCc1ccc(COc2cccc(C(F)(F)F)c2)cc1)[C@@H]1CCCN1S(=O)(=O)c1ccc(Cl)s1 [Example 50]	242 nM
CC(C)(C)Oc1ccc(OCc2ccc(CNC(=O)[C@@H]3CCCN3S(=O)(=O)c3ccc(Cl)s3)cc2)cc1 [Example 51, (2S)-N-({4-[(4-tert-butoxyphenoxy)methyl]phenyl}methyl)-1-(5-chlorothiophene-2-sulfonyl)pyrrolidine-2-carboxamide]	630 nM
O=C(NCc1ccc(COc2cccc(OC(F)(F)F)c2)cc1)[C@@H]1CCCN1S(=O)(=O)c1ccc(Cl)s1 [Example 52, (2S)-1-(5-chlorothiophene-2-sulfonyl)-N-((4-{[3-(trifluoro-methoxy)phenoxy]methyl}phenyl)methyl)pyrrolidine-2-carboxamide]	210 nM
Cc1cccc(OCc2ccc(CNC(=O)[C@@H]3CCCN3S(=O)(=O)c3ccc(Cl)s3)cc2)c1 [Example 53, (2S)-1-(5-chlorothiophene-2-sulfonyl)-N-({4-[(3-methyl-phenoxy)methyl]phenyl}methyl)pyrrolidine-2-carboxamide]	500 nM
COc1cccc(OCc2ccc(CNC(=O)[C@@H]3CCCN3S(=O)(=O)c3ccc(Cl)s3)cc2)c1 [Example 54, (2S)-1-(5-chlorothiophene-2-sulfonyl)-N-({4-[(3-methoxy-phenoxy)methyl]phenyl}methyl)pyrrolidine-2-carboxamide]	550 nM
O=C(NCc1ccc(COc2cccc(F)c2)cc1)[C@@H]1CCCN1S(=O)(=O)c1ccc(Cl)s1 [Example 55, (2S)-1-(5-chlorothiophene-2-sulfonyl)-N-({4-[(3-fluoro-phenoxy)methyl]phenyl}methyl)pyrrolidine-2-carboxamide]	230 nM
O=C(NCc1ccc(COc2cccc(Cl)c2)cc1)[C@@H]1CCCN1S(=O)(=O)c1ccc(Cl)s1 [Example 56, (2S)-N-({4-[(3-chlorophenoxy)methyl]phenyl}methyl)-1-(5-chlorothiophene-2-sulfonyl)pyrrolidine-2-carboxamide]	250 nM
O=C(NCc1ccc(COc2cc(F)cc(F)c2)cc1)[C@@H]1CCCN1S(=O)(=O)c1ccc(Cl)s1 [Example 57, (2S)-1-(5-chlorothiophene-2-sulfonyl)-N-({4-[(3,5-difluoro-phenoxy)methyl]phenyl}methyl)pyrrolidine-2-carboxamide]	310 nM
COC(=O)c1cccc(OCc2ccc(CNC(=O)[C@@H]3CCCN3S(=O)(=O)c3ccc(Cl)s3)cc2)c1 [Example 58, methyl 3-((4-({[(2S)-1-(5-chlorothiophene-2-sulfonyl)pyrrolidine-2-carbonyl]amino}methyl)phenyl)methoxy)benzoate]	310 nM
CN(C)c1cccc(OCc2ccc(CNC(=O)[C@@H]3CCCN3S(=O)(=O)c3ccc(Cl)s3)cc2)c1 [Example 59, (2S)-1-(5-chlorothiophene-2-sulfonyl)-N-((4-{[3-(dimethyl-amino)phenoxy]methyl}phenyl)methyl)pyrrolidine-2-carboxamide]	838 nM
O=C(NCc1ccc(COc2ccccc2C(F)(F)F)cc1)[C@@H]1CCCN1S(=O)(=O)c1ccc(Cl)s1 [Example 60, (2S)-1-(5-chlorothiophene-2-sulfonyl)-N-((4-{[2-(trifluoro-methyl)phenoxy]methyl}phenyl)methyl)pyrrolidine-2-carboxamide]	420 nM
